Assay results reported in patent US11237155B2, “Screening methods using olfactory receptors and novel compounds identified using the same” (MARS, INCORPORATED, priority 2016, dated 2022).

Experiments:
Format in all cases: cell-based
[1] = tested on: Cat OR5A1; test: CNG chAMPion assay, OR_9 (OR5A1), cat ortholog; conditions: cat OR5A1, phase 3
Experimental: chAMPion (CNG channel) assay. HEK293/CNG/nat-Clytin/RTP1 s endo cells were transiently transfected with plasmids encoding the respective OR and were seeded at 20,000 cells/well in 25 μL/well complete growth medium in poly-D-lysine coated black, clear-bottom 384 MTPs.
Data were analyzed with the Screenworks® software (Molecular Devices, version 4.0.0.30). Luminescence values (in RLU) were exported as maximum RLU between 10 s and 40 s. In addition to using raw values, the data were also normalized to background signals (wells containing buffer only) and expressed as “Fold change” (mean value (n=2)/mean value of buffer wells (n=2)). Data analysis and plotting of graphs was carried out using Excel (Microsoft) and GraphPad Prism (GraphPad Software, Inc.).

[2] = tested on: Dog OR5A1; test: CNG chAMPion assay, OR_9 (OR5A1), dog ortholog; conditions: dog OR5A1, phase 3
Excerpt: This example refers to the functional expression of different feline and canine olfactory receptors (ORs). 20 OR sequences were selected, where 10 sequences have feline origins and the remaining 10 have canine origins. These ORs were subcloned into a modified expression vector suitable for the transient, functional expression of ORs. The transiently expressed receptors were then stimulated with various concentrations of different odorants aiming to deorphanize the feline and canine ORs. […] Functional expression of the different OR sets were transient in reporter cell line A or B. The transiently transfected ORs were stimulated with 3 concentrations (n=4) of different odorants (at least 3).
chAMPion (CNG channel) assay. […]
Twenty-four hours later, the cell medium was removed manually and cells were incubated in 20 μL/well coelenterazine (11 μM) in Tyrode buffer with 0 mM calcium for 3.5 h at 37° C. Plates were then read in a luminescence plate reader (FLIPR^TETRA, Molecular Devices) with the following camera settings: exposure time: 0.533 s, maximum gain. Luminescence was recorded for 1 min after addition of 10 μL/well compounds (3× solutions prepared in Tyrode buffer with 0 mM calcium), followed by an incubation period of 30 min at 37° C. Luminescence was again recorded for 1 min after addition of 20 μL/well Tyrode buffer with 10 mM CaCl2. […]

[3] = target: T1, Human OR5A1 (Homo sapiens, UniProt Q8NGJ0); test: CRE-NanoLuc luciferase assay, OR_9 (OR5A1), human ortholog; conditions: human OR5A1, phase 3
T1 construct: expressed in transfected cells; host or cells: HEK293 PEAKrapid/RTP1s endo (reporter cell line A)
T1 sequence (Q8NGJ0 1-315): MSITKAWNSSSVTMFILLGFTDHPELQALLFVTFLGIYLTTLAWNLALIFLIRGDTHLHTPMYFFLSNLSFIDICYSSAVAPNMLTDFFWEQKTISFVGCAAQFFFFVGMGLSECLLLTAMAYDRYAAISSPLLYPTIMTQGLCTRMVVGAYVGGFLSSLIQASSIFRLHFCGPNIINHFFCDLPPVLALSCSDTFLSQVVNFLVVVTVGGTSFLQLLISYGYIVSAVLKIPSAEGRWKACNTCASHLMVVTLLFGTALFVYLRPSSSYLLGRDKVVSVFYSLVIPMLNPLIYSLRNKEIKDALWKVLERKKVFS

| receptor response (dose-response, fold change) [1] | EC50 (rank among the four compounds) [2] | receptor response (dose-response, fold change) [3] | Compound | Emax (rank among the four compounds) [2] |
| --- | --- | --- | --- | --- |
| weaker responses |  |  | CCCCCOC(C)=O [amyl acetate, Amyl acetate] |  |
| strong response | lowest EC50 | responds | CC(=O)/C=C/C1=C(C)CCCC1(C)C [β-ionone, beta-Ionone] | highest Emax |

| Compound | receptor response (dose-response, fold change) [1] | EC50 (rank among the four compounds) [2] | receptor response (dose-response, fold change) [3] | Emax (rank among the four compounds) [2] |
| --- | --- | --- | --- | --- |
| CC(C)=CCCC(C)=CC=O [citral, Citral] | no response |  |  |  |
